From paper doi:10.1101/2025.10.31.685773v1 (biorxiv, 2025)

How the values were obtained:
[1] = target: TtCoAT·ADLP complex (NAD(H) site in ADLP) (Thermus thermophilus, UniProt Q72IQ0); experiment: isothermal titration calorimetry; format: binding
ADLP = target: T1, ADLP (Thermus thermophilus, UniProt Q72IQ0); experiment: isothermal titration calorimetry; format: binding
T1 sequence (Q72IQ0 1-345): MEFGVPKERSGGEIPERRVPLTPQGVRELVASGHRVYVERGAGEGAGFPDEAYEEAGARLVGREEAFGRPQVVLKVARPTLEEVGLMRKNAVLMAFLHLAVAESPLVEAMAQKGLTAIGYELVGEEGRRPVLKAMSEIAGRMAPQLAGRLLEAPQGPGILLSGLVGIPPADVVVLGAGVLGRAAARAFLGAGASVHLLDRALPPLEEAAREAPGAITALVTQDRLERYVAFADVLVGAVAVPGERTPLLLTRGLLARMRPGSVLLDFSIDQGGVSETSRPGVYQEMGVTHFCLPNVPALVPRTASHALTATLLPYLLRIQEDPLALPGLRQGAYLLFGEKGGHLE

[2] = tested on: CCCC(=O)SCCNC(=O)CCNC(=O)[C@H](O)C(C)(C)COP(=O)(O)OP(=O)(O)OC[C@H]1O[C@@H](n2cnc3c(N)ncnc32)[C@H](O)[C@@H]1OP(=O)(O)O; experiment: purified protein; details: 100 mM acetate as co-substrate, pH 7.5, no NAD+

Compound | Kd [1] [nM] | Kd (ADLP) [nM] | Km [2] [µM]
NC(=O)C1=CN([C@@H]2O[C@H](COP(=O)(O)OP(=O)(O)OC[C@H]3O[C@@H](n4cnc5c(N)ncnc54)[C@H](O)[C@@H]3O)[C@@H](O)[C@H]2O)C=CC1 [NADH] | 340 ± 51 | 220 | 
NC(=O)c1ccc[n+]([C@@H]2O[C@H](COP(=O)(O)OP(=O)(O)OC[C@H]3O[C@@H](n4cnc5c(N)ncnc54)[C@H](O)[C@@H]3O)[C@@H](O)[C@H]2O)c1 [NAD^+] | 3100 ± 330 | 9100 | 
TtCoAT·ADLP (CoA transferase site) (Thermus thermophilus HB27) |  |  | 33.1 ± 2.8
